Results published in patent US20230250096A1, “SUBSTITUTED PHENYL-1H-PYRROLO[2,3-c] PYRIDINE DERIVATIVES” (Janssen Pharmaceutica NV, priority 2021, published 2023).

Molecular target: T1, menin/MLL (terbium chelate-labeled menin, FITC-MBM1 peptide) (Homo sapiens, UniProt O00255, T541A)
T1 construct: Menin (a.a 1-610-6xhis tag, 2.3 mg/mL in 20 mM Hepes)
T1 sequence (O00255 with tags, fused parts or gaps T541A): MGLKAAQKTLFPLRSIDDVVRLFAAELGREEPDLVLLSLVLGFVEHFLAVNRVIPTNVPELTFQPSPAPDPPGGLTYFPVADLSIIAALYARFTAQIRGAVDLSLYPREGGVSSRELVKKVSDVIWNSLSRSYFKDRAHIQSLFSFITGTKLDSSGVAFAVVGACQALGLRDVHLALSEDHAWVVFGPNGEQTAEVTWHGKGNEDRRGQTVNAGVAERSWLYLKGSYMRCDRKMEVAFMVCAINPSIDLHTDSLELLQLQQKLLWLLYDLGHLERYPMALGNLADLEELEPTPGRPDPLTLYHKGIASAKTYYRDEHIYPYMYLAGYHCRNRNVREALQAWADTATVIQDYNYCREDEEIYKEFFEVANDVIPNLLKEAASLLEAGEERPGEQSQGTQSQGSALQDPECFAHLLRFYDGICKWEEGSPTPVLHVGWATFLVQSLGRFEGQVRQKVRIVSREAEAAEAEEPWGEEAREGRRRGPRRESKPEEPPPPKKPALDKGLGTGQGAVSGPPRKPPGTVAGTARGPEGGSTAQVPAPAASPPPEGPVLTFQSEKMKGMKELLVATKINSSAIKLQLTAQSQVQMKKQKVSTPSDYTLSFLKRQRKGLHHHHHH
Assay: Menin/MLL homogenous time-resolved fluorescence (HTRF) assay
Assay type: binding
Details: 30 min incubation
Method in brief: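 Terbium-labeled menin (a.a. 1-610, His-tagged; […]) pre-incubated 30 min with compound, then 75 nM FITC-MBM1 peptide added for 15 min at ambient temperature in Tris pH 7.5 buffer, 0.5% DMSO. HTRF 520/490 nm ratio read; IC50 from 11-point four-fold titrations, typically from 10 μM.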

SMILES	IC50 [nM]
CC(=O)N1CCC([C@H](CO)N2CC[C@@H](Cc3cn(-c4ccc(F)cc4C(=O)N(C)C(C)C)c4cncc(C)c34)C2)CC1 (single isomer, unassigned) [Compound 206a]	0.045
CC(=O)N1CCC(CN2CC[C@@H](Cc3cn(-c4ccc(F)cc4C(=O)N4CCC5CC54)c4cncc(C)c34)C2)CC1 (single isomer, unassigned) [Compound 311a]	0.037
CC(=O)N1CCC(CN2CC[C@@H](Cc3cn(-c4ccc(F)cc4C(=O)N4CCC5CC54)c4cncc(C)c34)C2)CC1 (single isomer, unassigned) [Compound 311b]	0.077
Cc1cncc2c1c(C[C@@H]1CCN(C[C@H]3CCNC(=O)CC3)C1)cn2-c1ccc(F)cc1C(=O)N1[C@H](C)CC[C@H]1C (single isomer, unassigned) [Compound 352a]	0.102
Cc1cncc2c1c(C[C@@H]1CCN(C[C@@H]3CCNC(=O)CC3)C1)cn2-c1ccc(F)cc1C(=O)N1[C@H](C)CC[C@H]1C (single isomer, unassigned) [Compound 352b]	0.247
Cc1cncc2c1c(C[C@@H]1CCN(CC3CCNC(=O)CC3)C1)cn2-c1ccc(F)cc1C(=O)N1CCC[C@H]1C (single isomer, unassigned) [Compound 353a]	0.094
COCCN(C)CCCC(C(C)C)N1CC[C@@H](Cc2cn(-c3ccc(F)cc3C(=O)N(C)C(C)C)c3cncc(Cl)c23)C1 (some centres unmarked) [Compound 3]	0.026
COCCN(C)CCCC(C(C)C)N1CC[C@H](Cc2cn(-c3ccc(F)cc3C(=O)N(C)C(C)C)c3cncc(Cl)c23)C1 (some centres unmarked) [Compound 4]	0.016
COCCN(C)CCCC(C(C)C)N1CCC(Cc2cn(-c3ccc(F)cc3C(=O)N(C)C(C)C)c3cncc(F)c23)C1 (centres unmarked) [Compound 6]	0.288
CNC(=O)[C@H]1CC[C@H](CN2CC(Cc3cn(-c4ccc(F)cc4C(=O)N(C)C(C)C)c4cncc(C)c34)C2)CC1 [Compound 74]	0.034
CNC(=O)c1cncc(N2CCC(N3CC(Cc4cn(-c5ccc(F)cc5C(=O)N(C)C(C)C)c5cncc(C)c45)C3)CC2)n1 [Compound 75]	0.059
CN=S(=O)(c1cc(F)ccc1-n1cc(CC2CCN(CC3CCOCC3)C2)c2c(C)cncc21)C(C)C (centres unmarked) [Compound 77]	0.191
CC(=O)N1CCC(C)(CN2CC(Cc3cn(-c4ccc(F)cc4C(=O)N(C)C(C)C)c4cncc(C)c34)C2)CC1 [Compound 84]	0.075
Cc1cncc2c1c(CC1CN(CC3CCNC(=O)CC3)C1)cn2-c1ccc(F)cc1C(=O)N(C)C(C)C (centres unmarked) [Compound 104]	0.147
CN=S(=O)(c1cc(F)ccc1-n1cc(CC2CCN(CC3CCN(C(C)=O)CC3)C2)c2c(C)cncc21)C(C)C (centres unmarked) [Compound 128]	0.078
Cc1cncc2c1c(CC1CN(CC3CCC(O)CC3)C1)cn2-c1ccc(F)cc1C(=O)N(C)C(C)C (centres unmarked) [Compound 144]	0.072
COC(=O)[C@H]1CC[C@@H](CN2CC[C@@H](Cc3cn(-c4ccc(F)cc4C(=O)N(C)C(C)C)c4cncc(C)c34)C2)CC1 [Compound 153]	0.077
Cc1cncc2c1c(C[C@@H]1CCN(C[C@H]3CC[C@@H](C(=O)N4CCC4)CC3)C1)cn2-c1ccc(F)cc1C(=O)N(C)C(C)C [Compound 178]	0.055
CNC(=O)[C@H]1CC[C@@H](CN2CC[C@@H](Cc3cn(-c4ccc(F)cc4C(=O)N(C)C(C)C)c4cncc(C)c34)C2)CC1 [Compound 185]	0.097
CC(=O)N1CCC(CCN2CC[C@@H](Cc3cn(-c4ccc(F)cc4C(=O)N(C)C(C)C)c4cncc(C)c34)C2)CC1 [Compound 189]	0.544
Cc1cncc2c1c(C[C@@H]1CCN(C[C@H]3CCCCN3)C1)cn2-c1ccc(F)cc1C(=O)N(C)C(C)C [Compound 199]	0.327
CC(=O)NC1CCC(N2CC[C@@H](Cc3cn(-c4ccc(F)cc4C(=O)N(C)C(C)C)c4cncc(C)c34)C2)CC1 (some centres unmarked) [Compound 200]	0.909

SMILES	IC50 [nM]
CC(=O)NC1CCC(N2CC[C@@H](Cc3cn(-c4ccc(F)cc4C(=O)N(C)C(C)C)c4cncc(C)c34)C2)CC1 (some centres unmarked) [Compound 201]	0.063
CNC(=O)N1CCC(CN2CCC(Cc3cn(-c4ccc(F)cc4C(=O)N(C)C(C)C)c4cncc(C)c34)CC2)CC1 [Compound 202]	0.081
CON(C)C(=O)N1CCC(CN2CCC(Cc3cn(-c4ccc(F)cc4C(=O)N(C)C(C)C)c4cncc(C)c34)CC2)CC1 [Compound 203]	0.069
Cc1cncc2c1c(CC1CCN(CC3CCN(C(=O)N4CCOCC4)CC3)CC1)cn2-c1ccc(F)cc1C(=O)N(C)C(C)C [Compound 204]	0.091
Cc1cncc2c1c(C[C@@H]1CCN(CC3CCC(O)CC3)C1)cn2-c1ccc(F)cc1C(=O)N(C)C(C)C (some centres unmarked) [Compound 205]	0.106
Cc1cncc2c1c(C[C@@H]1CCN(CC3CCN(C(N)=O)CC3)C1)cn2-c1ccc(F)cc1C(=O)N(C)C(C)C [Compound 207]	0.016
CC(=O)N1CC2CC(C1)C2N1CC[C@H](Cc2cn(-c3ccc(F)cc3C(=O)N(C)C(C)C)c3cncc(C)c23)C1 (some centres unmarked) [Compound 208]	0.147
CC(=O)N1CC2CC(C1)C2N1CC[C@@H](Cc2cn(-c3ccc(F)cc3C(=O)N(C)C(C)C)c3cncc(C)c23)C1 (some centres unmarked) [Compound 209]	0.202
CC(=O)NC1CCC(N2CC[C@H](Cc3cn(-c4ccc(F)cc4C(=O)N(C)C(C)C)c4cncc(C)c34)C2)CC1 (some centres unmarked) [Compound 211]	0.032
CC(=O)N1CCC(CN2CCC(Cc3cn(-c4ccc(F)cc4C(=O)N(C)C(C)C)c4cncc(C)c34)C2C)CC1 (centres unmarked) [Compound 228]	0.061
Cc1cncc2c1c(CC1CN(CC3CCOCC3)C1)cn2-c1ccc(F)cc1C(=O)N1CCC2CC21 (centres unmarked) [Compound 262]	0.018
Cc1cncc2c1c(CC1CN(CC3CCOCC3)C1)cn2-c1ccc(F)cc1C(=O)N1CC2CC1CO2 (centres unmarked) [Compound 264]	0.034
Cc1cncc2c1c(CC1CN(CC3CCOCC3)C1)cn2-c1ccc(F)cc1C(=O)N1CCCC1CO (centres unmarked) [Compound 268]	0.149
Cc1cncc2c1c(CC1CN(CC3CCOCC3)C1)cn2-c1ccc(F)cc1C(=O)N1CCC[C@H]1C [Compound 279]	0.025
Cc1cncc2c1c(CC1CN(CC3CCOCC3)C1)cn2-c1ccc(F)cc1C(=O)N(CCO)C(C)C [Compound 281]	0.058
CC(=O)N1CCC(CN2CC[C@@H](Cc3cn(-c4ccc(F)cc4C(=O)N4CCC5CC54)c4cncc(C)c34)C2)CC1 (some centres unmarked) [Compound 311]	0.031
CC(=O)N1CCC(CN2CC[C@@H](Cc3cn(-c4ccc(F)cc4C(=O)N4CC5CC4CO5)c4cncc(C)c34)C2)CC1 (some centres unmarked) [Compound 312]	0.058
CC(=O)N1CCC(CN2CC[C@@H](Cc3cn(-c4ccc(F)cc4C(=O)N4CCC[C@H]4C)c4cncc(C)c34)C2)CC1 [Compound 315]	0.071
CC(=O)N1CCC(CN2CC[C@@H](Cc3cn(-c4ccc(F)cc4C(=O)N4[C@@H](C)CC[C@@H]4C)c4cncc(C)c34)C2)CC1 [Compound 316]	0.055
CC(=O)N1CCC(CN2CC[C@@H](Cc3cn(-c4ccc(F)cc4C(=O)N4CCC[C@@H]4C)c4cncc(C)c34)C2)CC1 [Compound 319]	0.293
CC(=O)N1CCC(CN2CC[C@@H](Cc3cn(-c4ccc(F)cc4C(=O)N(CC(C)O)C(C)C)c4cncc(C)c34)C2)CC1 (some centres unmarked) [Compound 320]	0.078
Cc1cncc2c1c(C[C@@H]1CCN(CC3CCN(C(=O)C(C)C)CC3)C1)cn2-c1ccc(F)cc1C(=O)N1CCC[C@H]1CO [Compound 328]	0.101
